# According to patent US20120039917A1, “IMMUNO[…]” (priority 2008, published 2012):
# Like-named read-outs stand apart in the source and are kept apart here.
# Tests used:
# resting T cells [1] = experiment: PMET activity measured by WST-1/PMS reduction; format: cell-based; settings: Homo sapiens, T-cell, read-out: IC50 inhibition of PMET (WST-1/PMS reduction)
# Protocol: (§1) Immediately prior to experiments, frozen PBMC were thawed, centrifuged at 1400 rpm in a Multifuge 3 s (Heraeus) for 4 min, washed in RPMI+10% FCS and resuspended in T cell medium (RPMI+10% FCS+10 μM 2-mercaptoethanol (Sigma), 1×glutamine, 1×non-essential amino acids (Gibco)) at 2×10^6 cells/mL. Cells (2×10^5) were activated by adding 10 μg/mL anti-CD3 and 5 μg/mL anti-CD28 and 20 U/mL IL-2 per well. Cells were incubated at 37° C. in a humidified incubator maintained at 5% CO2 for 4 to 5 days until large numbers of large spherical aggregates or “bursts” of lymphocytes were observed. Activated proliferating T cells were pooled from the wells for further experiments. Resting T cells were incubated for the same length of time but in the presence of 20 U/mL IL-2 only.
# (§2) WST-1/PMS reduction rates were measured in a microplate format as described previously (Berridge and Tan, 1998). […] WST-1 reduction was measured in real time at 450 nm over 30-60 min in a BMG FLUOstar OPTIMA plate reader.
# (§3) The effect of PXD on PMET (FIG. 1A) was investigated by measuring reduction of the cell impermeable tetrazolium dye, WST-1, in the presence of its obligate intermediate electron acceptor, 1 mPMS (WST-1/PMS reduction). […] The effect of PXD on proliferation (FIG. 1B) was determined by measuring intracellular reduction of the tetrazolium salt, MTT.
# proliferating T cells [2] = experiment: PMET activity measured by WST-1/PMS reduction; format: cell-based; settings: Homo sapiens, T-cell, read-out: IC50 inhibition of PMET (WST-1/PMS reduction)
# Protocol: as §1, §2, §3
# resting T cells [3] = experiment: Cell viability measured by Trypan blue exclusion; format: cell-based, human; settings: 10 μM PXD
# Protocol: as §1
# (§4) Proliferating and resting PBMCs were centrifuged at 1400 rpm in a Multifuge 3 s (Heraeus) for 4 min at room temperature, resuspended in fresh T cell medium in 96 U-well plates (200 μL per well at densities of 2×10^6 cells/mL) in the presence of PXD or 0.1% DMSO and incubated in a 5% CO2, 37° C. humidified incubator. Viable cells, as determined by Trypan blue exclusion, were counted in a Neubauer haemocytometer every 24 h for several days.
# proliferating T cells [4] = experiment: Cell viability measured by Trypan blue exclusion; format: cell-based, human; settings: 10 μM PXD
# Protocol: as §1, §4
# [5] = test system: late stage solid cancer patients; settings: intravenous infusion, phase I; cited from earlier work
# MM-derived RPMI 8226 = experiment: Sensitivity of cell types to PXD, viability by AV/PI staining; format: cell-based, human; settings: RPMI 8226, 10 μM PXD for 24 h
# Protocol: FIG. 6. Sensitivity of different cell types to PXD. Different cell types were incubated with 10 μM PXD for 24 h and viability was determined by AV/PI staining and reported as [% viable blasts after PXD exposure]/[% viable blasts after 0.1% DMSO exposure]. Percentage values are as follows: AML-derived HL60: 16±5 and HL60p°: 54±6, ALL-derived MOLT-4: 44±4, MM-derived U226: 59±6 and RPMI 8226: 12±4, primary AML blasts: 64±5, primary ALL blasts: 23±4, normal BM: 89±5, proliferating T cells: 69±4, resting T cells: 98±6. Results from cell lines are presented as the average±SEM of at least 3 separate experiments, results from bone marrow samples are presented as the average±SD of single experiments performed in duplicate.
# Cell lines were grown in RPMI-1640 medium (GIBCO-BRL, Grand Island, N.Y.) supplemented with 5% (v/v) fetal calf serum, 2 mM […], 25 μg/mL penicillin, 25 μg/mL streptomycin, 50 μg/mL uridine and 1 mM pyruvate to densities of 1-2×10^6 cells/mL (exponential stage), at 37° C. in a humidified incubator maintained at 5% CO2.
# Cells were centrifuged at 1400 rpm in a Multifuge 3 s (Heraeus) for 4 min at room temperature, washed in phosphate buffered saline solution, pH 7.3 (PBS) and resuspended in Annexin V binding buffer. […] Staining was analyzed by flow cytometry using a Becton Dickinson Canto II FACS analyser using FlowJo (TreeStar) software.
# proliferating T cells [6] = experiment: Apoptosis/viability by Annexin V/propidium iodide staining; format: cell-based; settings: Homo sapiens, T-cell
# Protocol: as §1
# Cells were centrifuged at 1400 rpm in a Multifuge 3 s (Heraeus) for 4 min at room temperature, washed in phosphate buffered saline solution, pH 7.3 (PBS) and resuspended in Annexin V binding buffer. Small aliquots (0.5-1×10^6 cells) were transferred to 1.5 mL tubes and spun at 1400 rpm in a Multifuge 3 s (Heraeus) for 4 min. Most supernatant was removed and 5 μL PI and 5 μL FITC-labelled AV was added to the wet pellets which were vortexed. After 30 min in the dark on ice, 500 μl of AV binding buffer was added, the cells were centrifuged for 2 min at 1400 rpm, washed once with AV binding buffer and resuspended in 300 μL of AV binding buffer in FACS tubes. Staining was analyzed by flow cytometry using a Becton Dickinson Canto II FACS analyser using FlowJo (TreeStar) software.
# The extent of apoptosis in resting and proliferating T cells was determined after 24 h exposure to 10 μM PXD (FIG. 2) by AV/PI staining. […] Resting T cells were not affected (FIG. 2D). The percentage of viable proliferating T cells dropped from 74% (FIG. 2F) to 51% after exposure to 10 μM PXD for 24 h (FIG. 2H), whilst the percentage of viable resting T cells was unaltered (FIGS. 2B and D).
# In order to investigate whether cells need to be exposed continually to PXD for its effects to manifest, proliferating T cells were exposed to 10 μM PXD for different periods of time, washed cells twice in RPMI and incubated for a further 24 h in fresh T cell medium.
smiles,measurement,setting,value
"Oc1ccc(C2=Cc3ccc(O)cc3OC2)cc1 [PXD, Isoflav-3-en-4′,7-diol]",IC50,resting T cells [1],> 200 µM
same,IC50,proliferating T cells [2],46 µM
same,viability (Trypan blue exclusion),resting T cells [3],remain viable
same,viability (Trypan blue exclusion),proliferating T cells [4],severely compromised
same,"stabilization of disease after treatment, some patients",[5],up to 6 months
same,well tolerated dose with minor side effects,[5],≤ 30 mg/kg
same,[% viable blasts after PXD exposure]/[% viable blasts after 0.1% DMSO exposure],MM-derived RPMI 8226,12±4%
same,viability at 10 µM,"proliferating T cells [6]; 24 h, 10 μM PXD for 24 h, control 74%, read-out: percentage of viable proliferating T cells (AV/PI)",51%
same,viability at 10 µM,"proliferating T cells [6]; 24 h, proliferating T cells, 10 μM PXD for 24 h, read-out: [% viable blasts after PXD exposure]/[% viable blasts after 0.1% DMSO exposure]",69 ± 4%
same,viability at 10 µM,"proliferating T cells [6]; PXD pre-incubated in 10% FCS, 10 μM final, relative to 0.1% DMSO, read-out: % Viable cells after exposure time 24 h",70 ± 7.1%
same,viability at 10 µM,"proliferating T cells [6]; PXD pre-incubated in 10% FCS, 10 μM final, then 24 h, relative to 0.1% DMSO, read-out: % Viable cells after exposure time 1 min",64 ± 4.6%
same,viability at 10 µM,"proliferating T cells [6]; PXD pre-incubated in 10% FCS, 10 μM final, then 24 h, relative to 0.1% DMSO, read-out: % Viable cells after exposure time 10 min",60 ± 7.1%
same,viability at 10 µM,"proliferating T cells [6]; PXD pre-incubated in 90% FCS, 10 μM final, relative to 0.1% DMSO, read-out: % Viable cells after exposure time 24 h",69 ± 7.2%
same,viability at 10 µM,"proliferating T cells [6]; PXD pre-incubated in 90% FCS, 10 μM final, then 24 h, relative to 0.1% DMSO, read-out: % Viable cells after exposure time 1 min",66 ± 4.2%
same,viability at 10 µM,"proliferating T cells [6]; PXD pre-incubated in 90% FCS, 10 μM final, then 24 h, relative to 0.1% DMSO, read-out: % Viable cells after exposure time 10 min",62 ± 5.7%
same,viability at 10 µM,"proliferating T cells [6]; PXD pre-incubated in 90% Human Serum, 10 μM final, relative to 0.1% DMSO, read-out: % Viable cells after exposure time 24 h",73.5 ± 9.2%
same,viability at 10 µM,"proliferating T cells [6]; PXD pre-incubated in 90% Human Serum, 10 μM final, then 24 h, relative to 0.1% DMSO, read-out: % Viable cells after exposure time 1 min",69 ± 4.4%
same,viability at 10 µM,"proliferating T cells [6]; PXD pre-incubated in 90% Human Serum, 10 μM final, then 24 h, relative to 0.1% DMSO, read-out: % Viable cells after exposure time 10 min",72 ± 7.3%
